The values below are quoted from earlier work in US20220304959A1, “TREATMENT OF LONG HAULERS SYNDROME WITH NICLOSAMIDE” (First Wave BioPharma, priority 2021, published 2022).

Structures are written as SMILES. Bounds are passed on as bounds.

On to `O=C(Nc1ccc([N+](=O)[O-])cc1Cl)c1cc(Cl)ccc1O` [niclosamide, 5-chloro-N-(2-chloro-4-nitrophenyl)-2-hydroxybenzamide], for which, under “administered to millions of people, including children”, the Overall safety profile result is on record as “very good safety profile”. In addition, where the note is “human use, literature reports”, the “Less frequently reported AEs: rash, oral irritation, fever, rectal bleeding, weakness, bad taste in mouth, sweating, palpitation, constipation, alopecia, oedema of an arm, backache, irritability” value is recorded as less than 1%; the “Other reported AEs: vomiting; abdominal discomfort possibly associated with anorexia, diarrhea, drowsiness, dizziness and headache” value is given as 1-4 % of patients.
